# Results as given in the supplement of paper PMC9663587.
# How the values were obtained:
# YKL-5-124 = compound: C=CC(=O)Nc1ccc(C(=O)Nc2[nH]nc3c2CN(C(=O)N[C@H](CN(C)C)c2ccccc2)C3(C)C)cc1 [YKL-5-124]; assay: increase in dead-cell fraction, 72 h; higher = more death;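 further: breast cancer cell lines in 384-well plates, stained with Hoechst plus LIVE/DEAD far red dye and imaged, cells above an LDR intensity threshold counted dead, Hoechst-negative corpses included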
# BSJ-03-123 = compound: CC(=O)c1c(C)c2cnc(Nc3ccc(N4CCN(CCOCCOCCOCCNC(=O)COc5cccc6c5C(=O)N(C5CCC(=O)NC5=O)C6=O)CC4)cn3)nc2n(C2CCCC2)c1=O [BSJ-03-123]; assay: as above
# [1] = compound: CC(=O)c1c(C)c2cnc(Nc3ccc(N4CCNCC4)cn3)nc2n(C2CCCC2)c1=O; assay: as above
# [2] = compound: CCN1CCN(Cc2ccc(Nc3ncc(F)c(-c4cc(F)c5nc(C)n(C(C)C)c5c4)n3)nc2)CC1; assay: as above
# Neratinib/HKI272 [3] = compound: T1, CCOc1cc2ncc(C#N)c(Nc3ccc(OCc4ccccn4)c(Cl)c3)c2cc1NC(=O)/C=C/CN(C)C [Neratinib/HKI272]; assay: as above
# [4] = compound: CCc1cnn2c(NCc3ccc[n+]([O-])c3)cc(N3CCCC[C@H]3CCO)nc12; assay: as above
# LEE011/Ribociclib = compound: CN(C)C(=O)c1cc2cnc(Nc3ccc(N4CCNCC4)cn3)nc2n1C1CCCC1 [LEE011/Ribociclib]; assay: as above
# THZ531 = compound: CN(C)C/C=C/C(=O)Nc1ccc(C(=O)N2CCC[C@@H](Nc3ncc(Cl)c(-c4c[nH]c5ccccc45)n3)C2)cc1 [THZ531]; assay: as above
# THZ1 [5] = compound: T2, CN(C)C/C=C/C(=O)Nc1ccc(C(=O)Nc2cccc(Nc3ncc(Cl)c(-c4c[nH]c5ccccc45)n3)c2)cc1 [THZ1]; assay: as above
# Flavopiridol = compound: CN1CC[C@H](c2c(O)cc(O)c3c(=O)cc(-c4ccccc4Cl)oc23)[C@H](O)C1 [Flavopiridol]; assay: as above
# Neratinib/HKI272 [6] = compound: T1, Neratinib/HKI272; assay: GR value, 72 h; higher = faster growth (1 = untreated, <0 = killing);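 further: breast cancer and non-malignant breast epithelial lines, nine half-log doses, viable cells counted by Hoechst and LIVE/DEAD dye imaging versus time-zero plates and DMSO controls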
# THZ1 [7] = compound: T2, THZ1; assay: as above
cell line,measurement,setting,value
HCC1395,increase in dead-cell fraction,YKL-5-124; 0.001 µM,0.0251
same,increase in dead-cell fraction,YKL-5-124; 0.003162 µM,0.0285
same,increase in dead-cell fraction,YKL-5-124; 0.01 µM,0.0648
same,increase in dead-cell fraction,YKL-5-124; 0.03162 µM,0.0466
same,increase in dead-cell fraction,YKL-5-124; 0.1 µM,0.0638
same,increase in dead-cell fraction,YKL-5-124; 0.3162 µM,0.0762
same,increase in dead-cell fraction,YKL-5-124; 1 µM,0.0835
same,increase in dead-cell fraction,YKL-5-124; 3.162 µM,0.0876
same,increase in dead-cell fraction,YKL-5-124; 10 µM,0.152
same,increase in dead-cell fraction,BSJ-03-123; 0.001 µM,0.0154
same,increase in dead-cell fraction,BSJ-03-123; 0.003162 µM,0.0016
same,increase in dead-cell fraction,BSJ-03-123; 0.01 µM,0.0046
same,increase in dead-cell fraction,BSJ-03-123; 0.03162 µM,0.0156
same,increase in dead-cell fraction,BSJ-03-123; 0.1 µM,0.0199
same,increase in dead-cell fraction,BSJ-03-123; 0.3162 µM,0.0113
same,increase in dead-cell fraction,BSJ-03-123; 1 µM,0.0316
same,increase in dead-cell fraction,BSJ-03-123; 3.162 µM,0.0201
same,increase in dead-cell fraction,BSJ-03-123; 10 µM,0.13
same,increase in dead-cell fraction,[1]; 0.0003162 µM,-0.0002
same,increase in dead-cell fraction,[1]; 0.001 µM,-0.0025
same,increase in dead-cell fraction,[1]; 0.003162 µM,-0.0071
same,increase in dead-cell fraction,[1]; 0.01 µM,0.0129
same,increase in dead-cell fraction,[1]; 0.03162 µM,0.0232
same,increase in dead-cell fraction,[1]; 0.1 µM,0.0283
same,increase in dead-cell fraction,[1]; 0.3162 µM,0.0367
same,increase in dead-cell fraction,[1]; 1 µM,0.0326
same,increase in dead-cell fraction,[1]; 3.162 µM,0.0325
same,increase in dead-cell fraction,[2]; 0.001 µM,0.0055
same,increase in dead-cell fraction,[2]; 0.003162 µM,-0.0031
same,increase in dead-cell fraction,[2]; 0.01 µM,0.0123
same,increase in dead-cell fraction,[2]; 0.03162 µM,0.0119
same,increase in dead-cell fraction,[2]; 0.1 µM,0.0163
same,increase in dead-cell fraction,[2]; 0.3162 µM,0.0184
same,increase in dead-cell fraction,[2]; 1 µM,0.0343
same,increase in dead-cell fraction,[2]; 3.162 µM,0.0632
same,increase in dead-cell fraction,[2]; 10 µM,0.447
same,increase in dead-cell fraction,Neratinib/HKI272 [3]; 0.0003162 µM,0.0064
same,increase in dead-cell fraction,Neratinib/HKI272 [3]; 0.001 µM,-0.004
same,increase in dead-cell fraction,Neratinib/HKI272 [3]; 0.003162 µM,0.0024
same,increase in dead-cell fraction,Neratinib/HKI272 [3]; 0.01 µM,0.0027
same,increase in dead-cell fraction,Neratinib/HKI272 [3]; 0.03162 µM,-0.0039
same,increase in dead-cell fraction,Neratinib/HKI272 [3]; 0.1 µM,0.0013
same,increase in dead-cell fraction,Neratinib/HKI272 [3]; 0.3162 µM,0.0091
same,increase in dead-cell fraction,Neratinib/HKI272 [3]; 1 µM,0.012
same,increase in dead-cell fraction,Neratinib/HKI272 [3]; 3.162 µM,0.141
same,increase in dead-cell fraction,[4]; 0.0001 µM,0.005
same,increase in dead-cell fraction,[4]; 0.0003162 µM,-0.0006
same,increase in dead-cell fraction,[4]; 0.001 µM,-0.004
same,increase in dead-cell fraction,[4]; 0.003162 µM,0.0091
same,increase in dead-cell fraction,[4]; 0.01 µM,0.0238
same,increase in dead-cell fraction,[4]; 0.03162 µM,0.263
same,increase in dead-cell fraction,[4]; 0.1 µM,0.368
same,increase in dead-cell fraction,[4]; 0.3162 µM,0.378
same,increase in dead-cell fraction,[4]; 1 µM,0.387
same,increase in dead-cell fraction,LEE011/Ribociclib; 0.001 µM,-0.0137
same,increase in dead-cell fraction,LEE011/Ribociclib; 0.003162 µM,0.0153
same,increase in dead-cell fraction,LEE011/Ribociclib; 0.01 µM,0.0143
same,increase in dead-cell fraction,LEE011/Ribociclib; 0.03162 µM,0.0111
same,increase in dead-cell fraction,LEE011/Ribociclib; 0.1 µM,0.0234
same,increase in dead-cell fraction,LEE011/Ribociclib; 0.3162 µM,0.0259
same,increase in dead-cell fraction,LEE011/Ribociclib; 1 µM,0.0472
same,increase in dead-cell fraction,LEE011/Ribociclib; 3.162 µM,0.0158
same,increase in dead-cell fraction,LEE011/Ribociclib; 10 µM,0.0578
same,increase in dead-cell fraction,THZ531; 0.0001 µM,0.0083
same,increase in dead-cell fraction,THZ531; 0.0003162 µM,-0.0121
same,increase in dead-cell fraction,THZ531; 0.001 µM,0.0071
same,increase in dead-cell fraction,THZ531; 0.003162 µM,0.0027
same,increase in dead-cell fraction,THZ531; 0.01 µM,-0.0161
same,increase in dead-cell fraction,THZ531; 0.03162 µM,-0.0019
same,increase in dead-cell fraction,THZ531; 0.1 µM,0.0618
same,increase in dead-cell fraction,THZ531; 0.3162 µM,0.113
same,increase in dead-cell fraction,THZ531; 1 µM,0.242
same,increase in dead-cell fraction,THZ1 [5]; 0.0001 µM,-0.017
same,increase in dead-cell fraction,THZ1 [5]; 0.0003162 µM,-0.002
same,increase in dead-cell fraction,THZ1 [5]; 0.001 µM,-0.0182
same,increase in dead-cell fraction,THZ1 [5]; 0.003162 µM,0.0057
same,increase in dead-cell fraction,THZ1 [5]; 0.01 µM,0.0001
same,increase in dead-cell fraction,THZ1 [5]; 0.03162 µM,0.0489
same,increase in dead-cell fraction,THZ1 [5]; 0.1 µM,0.193
same,increase in dead-cell fraction,THZ1 [5]; 0.3162 µM,0.25
same,increase in dead-cell fraction,THZ1 [5]; 1 µM,0.469
same,increase in dead-cell fraction,Flavopiridol; 0.0001 µM,-0.0165
same,increase in dead-cell fraction,Flavopiridol; 0.0003162 µM,0.0036
same,increase in dead-cell fraction,Flavopiridol; 0.001 µM,-0.001
same,increase in dead-cell fraction,Flavopiridol; 0.003162 µM,0.0024
same,increase in dead-cell fraction,Flavopiridol; 0.01 µM,0.0179
same,increase in dead-cell fraction,Flavopiridol; 0.03162 µM,-0.0053
same,increase in dead-cell fraction,Flavopiridol; 0.1 µM,-0.0066
same,increase in dead-cell fraction,Flavopiridol; 0.3162 µM,0.0777
same,increase in dead-cell fraction,Flavopiridol; 1 µM,0.306
same,GR value,Neratinib/HKI272 [6]; 0.0003162 µM,1.05 GR
same,GR value,Neratinib/HKI272 [6]; 0.001 µM,1.07 GR
same,GR value,Neratinib/HKI272 [6]; 0.003162 µM,1.14 GR
same,GR value,Neratinib/HKI272 [6]; 0.01 µM,1 GR
same,GR value,Neratinib/HKI272 [6]; 0.03162 µM,1.06 GR
same,GR value,Neratinib/HKI272 [6]; 0.1 µM,0.916 GR
same,GR value,Neratinib/HKI272 [6]; 0.3162 µM,0.741 GR
same,GR value,Neratinib/HKI272 [6]; 1 µM,0.521 GR
same,GR value,Neratinib/HKI272 [6]; 3.162 µM,0.0073 GR
same,GR value,THZ1 [7]; 0.0001 µM,1 GR
same,GR value,THZ1 [7]; 0.0003162 µM,1.01 GR
same,GR value,THZ1 [7]; 0.001 µM,0.982 GR
same,GR value,THZ1 [7]; 0.003162 µM,0.985 GR
same,GR value,THZ1 [7]; 0.01 µM,1.04 GR
same,GR value,THZ1 [7]; 0.03162 µM,0.241 GR
same,GR value,THZ1 [7]; 0.1 µM,-0.42 GR
same,GR value,THZ1 [7]; 0.3162 µM,-0.546 GR
same,GR value,THZ1 [7]; 1 µM,-0.795 GR
